Experimental data taken from patent publication US9376442B2, “Methylpyrrolopyrimidinecarboxamides” (Takeda GmbH, priority 2009, dated 2016).

Target: T1, PDE5A1 (Homo sapiens, UniProt O76074)
T1 construct: from tissue; host or cells: human platelets from fresh donor blood (10,000 x g supernatant of sonicated lysate)
Assay: Inhibition of type 5 phosphodiesterase (PDE5) activity, modified SPA test with human platelet lysate
Format: biochemical
Details: 0.5 μM cGMP, read-out: PDE5A1 inhibitory values [measured as −log IC50 (mol/l)] (converted)
Experimental: Method for Measuring Inhibition of the Type 5 Phosphodiesterase (PDE5) Activity:
As a source for human PDE5, platelets are used. For that purpose, 150 ml fresh blood from human donors anticoagulated with citrate [final concentration 0.3% (w/v)] is centrifuged at 200 g for 10 min to obtain the so-called platelet-rich-plasma (PRP) as a supernatant. 1/10 volume of ACD solution (85 mM Na3-citrate, 111 mM D-glucose, 71 mM citric acid, pH 4.4) is added to 9/10 volume of PRP. After centrifugation (1,400 g, 10 min) the cell pellet is resuspended in 3 ml homogenization buffer (NaCl 140 mM, KCl 3.8 mM, EGTA (ethylene glycol tetraacetic acid) 1 mM, MgCl2 1 mM, Tris-HCl 20 mM, beta-mercaptoethanol 1 mM, pH 8.2) plus protease-inhibitor mix giving rise to the final concentrations of 0.5 mM Pefablock (Roche), 10 μM Leupeptin, 5 μM Trypsininhibitor, 2 mM Benzamidin and 10 μM Pepstatin A. The suspension is sonified and thereafter centrifuged for 15 min at 10,000 g. The resulting supernatant (platelet lysate) is used for enzymatic testings.
PDE5A1 activity is inhibited by the compounds of the present subject matter in a modified SPA (scintillation proximity assay) test, supplied by Amersham Biosciences (see procedural instructions “phosphodiesterase [3H]cAMP SPA enzyme assay, code TRKQ 7090”), carried out in 96-well microtitre plates (MTP's). The test volume is 100 μl and contains 20 mM Tris buffer (pH 7.4), 0.1 mg of BSA (bovine serum albumin)/ml, 5 mM Mg^2+, 1 μM motapizone, 10 nM PDE2 inhibitor 2-(3,4-dimethoxybenzyl)-7-[(1R,2R)-2-hydroxy-1-(2-phenylethyl)propyl]-5-methylimidazo[5,1-f][1,2,4]triazin-4(3H)-one, 0.5 μM cGMP (cyclic guanosine monophosphate) (including about 50,000 cpm of [3H]cGMP as a tracer), 1 μl of the respective compound dilution in dimethylsulfoxide (DMSO) and sufficient PDE5-containing platelet lysat (10,000×g supernatant, see above) to ensure that 10-20 wt % of the cGMP is converted under the said experimental conditions. […] After a preincubation of 5 min at 37° C., the reaction is started by adding the substrate (cGMP) and the assay is incubated for a further 15 min; after that, it is stopped by adding SPA beads (50 μl). In accordance with the manufacturer's instructions, the SPA beads had previously been resuspended in water, but are then diluted 1:3 (v/v) in water; the diluted solution also contains 3 mM […] (IBMX) to ensure a complete PDE activity stop. After the beads have been sedimented (>30 min), the MTP's are analyzed in commercially available luminescence detection devices. The corresponding IC50 values of the compounds for the inhibition of PDE activity are determined from the concentration-effect curves by means of non-linear regression.

SMILES	IC50
CC(=O)N[C@H]1CC[C@@H](NC(=O)c2c(C)[nH]c3c(-c4cc(C(C)C)ccc4OCC4CC4)ncnc23)CC1 [Example E161, N-[cis-4-(Acetylamino)cyclohexyl]-4-[2-(cyclopropylmethoxy)-5-(propan-2-yl)phenyl]-6-methyl-5H-pyrrolo[3,2-d]pyrimidine-7-carboxamide]	< 1 nM
CCC(=O)N1CCC(NC(=O)c2c(C)[nH]c3c(-c4cc(OC)c(F)cc4OCC4CC4)ncnc23)CC1 [Example E103, 4-[2-(cyclopropylmethoxy)-4-fluoro-5-methoxyphenyl]-6-methyl-N-(1-propionylpiperidin-4-yl)-5H-pyrrolo[3,2-d]pyrimidine-7-carboxamide]	< 1 nM
CCC(=O)N1CC[C@@H](NC(=O)c2c(C)[nH]c3c(-c4cc(C)c(F)cc4OCC4CC4)ncnc23)[C@H](O)C1 (relative stereo) [Example E129, 4-[2-(cyclopropylmethoxy)-4-fluoro-5-methylphenyl]-N-[(3R*,4R*)-3-hydroxy-1-propanoylpiperidin-4-yl]-6-methyl-5H-pyrrolo[3,2-d]pyrimidine-7-carboxamide]	< 1 nM
CC(=O)N1CCC(NC(=O)c2c(C)[nH]c3c(-c4c(OCC5CC5)ccc5c4OCO5)ncnc23)CC1 [Example E1, N-(1-Acetylpiperidin-4-yl)-4-[5-(cyclopropylmethoxy)-1,3-benzodioxol-4-yl]-6-methyl-5H-pyrrolo[3,2-d]pyrimidine-7-carboxamide]	< 1 nM
CCC(=O)N1CC[C@@H](NC(=O)c2c(C)[nH]c3c(-c4cc(F)c(OC)cc4OCC4CC4)ncnc23)C1 [Example E187, 4-[2-(Cyclopropylmethoxy)-5-fluoro-4-methoxyphenyl]-6-methyl-N-[(3R)-1-propionylpyrrolidin-3-yl]-5H-pyrrolo[3,2-d]pyrimidine-7-carboxamide]	< 1 nM
COCC(=O)N1CC[C@@H](NC(=O)c2c(C)[nH]c3c(-c4ccc(F)cc4OCC4CC4)ncnc23)C1 [Example E30, 4-[2-(Cyclopropylmethoxy)-4-fluorophenyl]-N-[(3R)-1-(methoxyacetyl)pyrrolidin-3-yl]-6-methyl-5H-pyrrolo[3,2-d]pyrimidine-7-carboxamide]	< 1 nM
CCOC(=O)N[C@H]1CC[C@H](NC(=O)c2c(C)[nH]c3c(-c4c(OCC5CC5)ccc5c4OCO5)ncnc23)CC1 [Example E8, Ethyl {trans-4-[({4-[5-(cyclopropylmethoxy)-1,3-benzodioxol-4-yl]-6-methyl-5H-pyrrolo[3,2-d]pyrimidin-7-yl}carbonyl)amino]cyclohexyl}carbamate]	< 1 nM
COc1ccc(-c2ncnc3c(C(=O)N[C@H]4CC[C@H](NC(C)=O)CC4)c(C)[nH]c23)c(OCC2CC2)c1 [Example E58, N-(trans-4-acetamidocyclohexyl)-4-[2-(cyclopropylmethoxy)-4-methoxyphenyl]-6-methyl-5H-pyrrolo[3,2-d]pyrimidine-7-carboxamide]	< 1 nM
CCC(=O)N1CC[C@H](NC(=O)c2c(C)[nH]c3c(-c4ccc(F)cc4OCC4CC4)ncnc23)[C@@H](O)C1 (relative stereo) [Example E35, 4-[2-(Cyclopropylmethoxy)-4-fluorophenyl]-N-[(3S*,4S*)-3-hydroxy-1-propanoylpiperidin-4-yl]-6-methyl-5H-pyrrolo[3,2-d]pyrimidine-7-carboxamide]	< 1 nM
CCC(=O)N1C[C@@H](O)[C@H](NC(=O)c2c(C)[nH]c3c(-c4cc(OC)ccc4OCC4CC4)ncnc23)C1 (relative stereo) [Example E193, 4-[2-(Cyclopropylmethoxy)-5-methoxyphenyl]-N-[(3R*,4R*)-4-hydroxy-1-propionylpyrrolidin-3-yl]-6-methyl-5H-pyrrolo[3,2-d]pyrimidine-7-carboxamide]	1 to 10 nM
COCC(=O)N[C@H]1CC[C@@H](NC(=O)c2c(C)[nH]c3c(-c4cc(C(C)C)ccc4OCC4CC4)ncnc23)CC1 [Example E162, 4-[2-(Cyclopropylmethoxy)-5-(propan-2-yl)phenyl]-N-{cis-4-[(methoxyacetyl)amino]cyclohexyl}-6-methyl-5H-pyrrolo[3,2-d]pyrimidine-7-carboxamide]	1 to 10 nM
COCC(=O)N[C@H]1CC[C@@H](NC(=O)c2c(C)[nH]c3c(-c4cc(F)c(OC)cc4OCC4CC4)ncnc23)CC1 [Example E140, 4-[2-(Cyclopropylmethoxy)-5-fluoro-4-methoxyphenyl]-N-{cis-4-[(methoxyacetyl)amino]cyclohexyl}-6-methyl-5H-pyrrolo[3,2-d]pyrimidine-7-carboxamide]	< 1 nM
COCC(=O)N1C[C@@H](O)[C@H](NC(=O)c2c(C)[nH]c3c(-c4ccc(OC)cc4OCC4CC4)ncnc23)C1 (relative stereo) [Example E65, 4-[2-(Cyclopropylmethoxy)-4-methoxyphenyl]-N-[(3R*,4R*)-4-hydroxy-1-(methoxyacetyl)pyrrolidin-3-yl]-6-methyl-5H-pyrrolo[3,2-d]pyrimidine-7-carboxamide]	< 1 nM
CCC(=O)N1CC[C@@H](NC(=O)c2c(C)[nH]c3c(-c4cc(F)ccc4OCC4CC4)ncnc23)[C@H](O)C1 (relative stereo) [Example E50, 4-[2-(Cyclopropylmethoxy)-5-fluorophenyl]-N-[(3R*,4R*)-3-hydroxy-1-propanoylpiperidin-4-yl]-6-methyl-5H-pyrrolo[3,2-d]pyrimidine-7-carboxamide]	1 to 10 nM

The remaining lines, values ahead:

IC50	SMILES
< 1 nM	COc1ccc(OCC2CC2)c(-c2ncnc3c(C(=O)NC4CCN(C(=O)C(C)O)CC4O)c(C)[nH]c23)c1 (mixture of isomers) [Example F50, Diastereomeric mixture of 4-[2-(Cyclopropylmethoxy)-5-methoxyphenyl]-N{(3R,4R)-3-hydroxy-1-[(2S)-2-hydroxypropanoyl]piperidin-4-yl}-6-methyl-5H-pyrrolo[3,2-d]pyrimidine-7-carboxamide and 4-[2-(Cyclopropylmethoxy)-5-methoxyphenyl]-N-{(3S,4S)-3-hydroxy-1-[(2S)-2-hydroxypropanoyl]piperidin-4-yl}-6-methyl-5H-pyrrolo[3,2-d]pyrimidine-7-carboxamide]
< 1 nM	Cc1[nH]c2c(-c3c(OCC4CC4)ccc4c3OCO4)ncnc2c1C(=O)N[C@@H]1CN(C(=O)CO)C[C@H]1O (relative stereo) [Example F9, 4-[5-(Cyclopropylmethoxy)-1,3-benzodioxol-4-yl]-N-[(3R*,4R*)-1-glycoloyl-4-hydroxypyrrolidin-3-yl]-6-methyl-5H-pyrrolo[3,2-d]pyrimidine-7-carboxamide]
< 1 nM	COc1cc(OCC2CC2)c(-c2ncnc3c(C(=O)N[C@@H]4CN(C(=O)CO)C[C@H]4O)c(C)[nH]c23)cc1F (relative stereo) [Example F117, 4-[2-(Cyclopropylmethoxy)-5-fluoro-4-methoxyphenyl]-N-[(3R*,4R*)-1-glycoloyl-4-hydroxypyrrolidin-3-yl]-6-methyl-5H-pyrrolo[3,2-d]pyrimidine-7-carboxamide]
< 1 nM	Cc1cc(-c2ncnc3c(C(=O)N[C@H]4CC[C@H](NC(=O)CO)CC4)c(C)[nH]c23)c(OCC2CC2)cc1F [Example F77, 4-[2-(Cyclopropylmethoxy)-4-fluoro-5-methylphenyl]-N-{trans-4-[(hydroxyacetyl)amino]cyclohexyl}-6-methyl-5H-pyrrolo[3,2-d]pyrimidine-7-carboxamide]
< 1 nM	Cc1cc(-c2ncnc3c(C(=O)N[C@H]4CC[C@H](NC(=O)[C@H](C)O)CC4)c(C)[nH]c23)c(OCC2CC2)cc1F [Example F78, 4-[2-(Cyclopropylmethoxy)-4-fluoro-5-methylphenyl]-N-(trans-4-{[(2S)-2-hydroxypropanoyl]amino}cyclohexyl)-6-methyl-5H-pyrrolo[3,2-d]pyrimidine-7-carboxamide]
< 1 nM	Cc1ccc(OCC2CC2)c(-c2nc(C)nc3c(C(=O)NC4CCN(C(=O)[C@H](C)O)CC4)c(C)[nH]c23)c1 [Example F107, 4-[2-(Cyclopropylmethoxy)-5-methylphenyl]-N-{1-[(2S)-2-hydroxypropanoyl]piperidin-4-yl}-2,6-dimethyl-5H-pyrrolo[3,2-d]pyrimidine-7-carboxamide]
